Measured values: BigSolDB 2.1

Cc1cnc(NC(=O)C2=C(O)c3ccccc3S(=O)(=O)N2C)s1
solubility (mole fraction)
Settings	288.15 K	293.15 K	298.15 K	303.15 K	308.15 K
in ethanol	2.2e-05	2.55e-05	3.2e-05	3.95e-05	5.3e-05
in ethylene glycol	2.53e-05	2.59e-05	3.02e-05	2.91e-05	3.06e-05
in propylene glycol	4.49e-05	4.52e-05	4.74e-05	5.6e-05	6.61e-05
in water	2e-07	3e-07	4e-07	9e-07	1.1e-06
